In ChEMBL document CHEMBL3885861, “Open TG-GATES”:

Species on record: Rattus norvegicus
Experiment: Open TG-GATES - Regimen: Daily Repeat
Type: toxicity, organism-based, Sprague-Dawley
Set-up: regimen Daily Repeat, gender Male, age 6 weeks
Conditions: in vivo, po, route gavage; for APTT / Bas / Eos / Fbg / Hb / Ht / Lym / MCH / MCHC / MCV / Mono / Neu / PT / Plat / RBC / Ret / WBC: tissue Blood; for KIDNEY_L / KIDNEY_R / KIDNEY_TOTAL: tissue Kidney; for LIVER: tissue Liver; for A/G / ALP / ALT / AST / BUN / CRE / Ca / Cl / DBIL / GLC / IP / K / LDH / Na / PL / RALB / TBIL / TC / TG / TP / gamma-GTP: tissue Plasma
[1] = 0 mg/kg, 72 h, dose level Control, time 3 day
[2] = 0 mg/kg, […], dose level Control, time 7 day
[3] = 0 mg/kg, […], dose level Control, time 14 day
[4] = 0 mg/kg, […], dose level Control, time 28 day
[5] = 15 mg/kg, 72 h, dose level Low, time 3 day
[6] = 15 mg/kg, […], dose level Low, time 7 day
[7] = 15 mg/kg, […], dose level Low, time 14 day
[8] = 15 mg/kg, […], dose level Low, time 28 day

O=c1ccc2ccccc2o1 [COUMARIN]
TERMINAL_BW [1]: 197.7 g
APTT [1]: 16.2 s
Bas [1]: 0%
Eos [1]: 1.2%
Fbg [1]: 204.2 mg/dL
Hb [1]: 13.4 g/dL
Ht [1]: 40.7%
Lym [1]: 64.8%
MCH [1]: 21.6 pg
MCHC [1]: 32.8%
MCV [1]: 65.9 fL
Mono [1]: 9.8%
Neu [1]: 24.2%
PT [1]: 11.8 s
Plat [1]: 97.8 x10_4/uL
RBC [1]: 617.8 x10_4/ul
Ret [1]: 8%
WBC [1]: 95.9 x10_2/uL
KIDNEY_L [1]: 0.9 g
KIDNEY_R [1]: 0.9 g
KIDNEY_TOTAL [1]: 1.9 g
LIVER [1]: 9.7 g
A/G [1]: 2.1
ALP [1]: 849.4 IU/L
ALT [1]: 39.8 IU/L
AST [1]: 68.6 IU/L
BUN [1]: 15.2 mg/dL
CRE [1]: 0.5 mg/dL
Ca [1]: 10.7 mg/dL
Cl [1]: 104.8 meq/L
DBIL [1]: 0.036 mg/dL
GLC [1]: 204.6 mg/dL
IP [1]: 8 mg/dL
K [1]: 4.9 meq/L
LDH [1]: 87.4 IU/L
Na [1]: 138.8 meq/L
PL [1]: 134.6 mg/dL
RALB [1]: 3.8 g/dL
TBIL [1]: 0.3 mg/dL
TC [1]: 79.6 mg/dL
TG [1]: 58.6 mg/dL
TP [1]: 5.6 g/dL
gamma-GTP [1]: 1 IU/L
TERMINAL_BW [2]: 227.5 g
TERMINAL_BW [3]: 286.1 g
TERMINAL_BW [4]: 359.5 g
APTT [2]: 16.5 s
Bas [2]: 0%
Eos [2]: 0.6%
Fbg [2]: 218.4 mg/dL
Hb [2]: 13.8 g/dL
Ht [2]: 41.6%
Lym [2]: 83.4%
MCH [2]: 21.3 pg
MCHC [2]: 33.2%
MCV [2]: 64.1 fL
Mono [2]: 4%
Neu [2]: 11.8%
PT [2]: 12 s
Plat [2]: 108.5 x10_4/uL
RBC [2]: 649.8 x10_4/ul
Ret [2]: 6.1%
WBC [2]: 145 x10_2/uL
APTT [3]: 16.7 s
Bas [3]: 0.2%
Eos [3]: 0.6%
Fbg [3]: 230.2 mg/dL
Hb [3]: 14.2 g/dL
Ht [3]: 42.9%
Lym [3]: 81%
MCH [3]: 20.6 pg
MCHC [3]: 33.2%
MCV [3]: 62 fL
Mono [3]: 7.4%
Neu [3]: 10.8%
PT [3]: 11.7 s
Plat [3]: 117.6 x10_4/uL
RBC [3]: 692.4 x10_4/ul
Ret [3]: 4.8%
WBC [3]: 114.9 x10_2/uL
APTT [4]: 17.8 s
Bas [4]: 0.2%
Eos [4]: 1.2%
Fbg [4]: 225 mg/dL
Hb [4]: 15.1 g/dL
Ht [4]: 45.2%
Lym [4]: 79.6%
MCH [4]: 19.6 pg
MCHC [4]: 33.4%
MCV [4]: 58.8 fL
Mono [4]: 5%
Neu [4]: 13.8%
PT [4]: 12 s
Plat [4]: 101 x10_4/uL
RBC [4]: 769 x10_4/ul
Ret [4]: 2.8%
WBC [4]: 128.8 x10_2/uL
KIDNEY_L [2]: 1 g
KIDNEY_R [2]: 1 g
KIDNEY_TOTAL [2]: 2 g
KIDNEY_L [3]: 1.2 g
KIDNEY_R [3]: 1.2 g
KIDNEY_TOTAL [3]: 2.3 g
KIDNEY_L [4]: 1.4 g
KIDNEY_R [4]: 1.4 g
KIDNEY_TOTAL [4]: 2.7 g
LIVER [2]: 11.4 g
LIVER [3]: 14 g
LIVER [4]: 16.1 g
A/G [2]: 2.2
ALP [2]: 954.6 IU/L
ALT [2]: 35.6 IU/L
AST [2]: 58 IU/L
BUN [2]: 17.8 mg/dL
CRE [2]: 0.6 mg/dL
Ca [2]: 10.6 mg/dL
Cl [2]: 104.8 meq/L
DBIL [2]: 0.014 mg/dL
GLC [2]: 189.8 mg/dL
IP [2]: 7.5 mg/dL
K [2]: 4.9 meq/L
LDH [2]: 79.6 IU/L
Na [2]: 138.6 meq/L
PL [2]: 142.6 mg/dL
RALB [2]: 3.9 g/dL
TBIL [2]: 0.3 mg/dL
TC [2]: 70 mg/dL
TG [2]: 108.8 mg/dL
TP [2]: 5.7 g/dL
gamma-GTP [2]: 1.4 IU/L
A/G [3]: 2
ALP [3]: 840.4 IU/L
ALT [3]: 32.4 IU/L
AST [3]: 59 IU/L
BUN [3]: 17.2 mg/dL
CRE [3]: 0.6 mg/dL
Ca [3]: 10.8 mg/dL
Cl [3]: 106.2 meq/L
DBIL [3]: 0.08 mg/dL
GLC [3]: 192 mg/dL
IP [3]: 7.5 mg/dL
K [3]: 4.8 meq/L
LDH [3]: 84.8 IU/L
Na [3]: 139.4 meq/L
PL [3]: 165.8 mg/dL
RALB [3]: 4 g/dL
TBIL [3]: 0.3 mg/dL
TC [3]: 84 mg/dL
TG [3]: 104 mg/dL
TP [3]: 6 g/dL
gamma-GTP [3]: 1.4 IU/L
A/G [4]: 1.7
ALP [4]: 705.8 IU/L
ALT [4]: 31.2 IU/L
AST [4]: 54.2 IU/L
BUN [4]: 18.8 mg/dL
CRE [4]: 0.6 mg/dL
Ca [4]: 10.7 mg/dL
Cl [4]: 106 meq/L
DBIL [4]: 0.012 mg/dL
GLC [4]: 215 mg/dL
IP [4]: 6.5 mg/dL
K [4]: 4.5 meq/L
LDH [4]: 51 IU/L
Na [4]: 138.8 meq/L
PL [4]: 137.4 mg/dL
RALB [4]: 4 g/dL
TBIL [4]: 0.3 mg/dL
TC [4]: 63 mg/dL
TG [4]: 126 mg/dL
TP [4]: 6.4 g/dL
gamma-GTP [4]: 1 IU/L
TERMINAL_BW [5]: 198.3 g
APTT [5]: 15.1 s
Bas [5]: 0%
Eos [5]: 1%
Fbg [5]: 192.4 mg/dL
Hb [5]: 13.1 g/dL
Ht [5]: 39.5%
Lym [5]: 72.2%
MCH [5]: 21.5 pg
MCHC [5]: 33.2%
MCV [5]: 64.8 fL
Mono [5]: 9.8%
Neu [5]: 17%
PT [5]: 11.6 s
Plat [5]: 110.7 x10_4/uL
RBC [5]: 608.6 x10_4/ul
Ret [5]: 7.9%
WBC [5]: 108.8 x10_2/uL
KIDNEY_L [5]: 0.9 g
KIDNEY_R [5]: 0.9 g
KIDNEY_TOTAL [5]: 1.8 g
LIVER [5]: 10.1 g
A/G [5]: 2.1
ALP [5]: 921.6 IU/L
ALT [5]: 40.6 IU/L
AST [5]: 68 IU/L
BUN [5]: 14.8 mg/dL
CRE [5]: 0.5 mg/dL
Ca [5]: 10.8 mg/dL
Cl [5]: 104.6 meq/L
DBIL [5]: 0.02 mg/dL
GLC [5]: 190 mg/dL
IP [5]: 8.3 mg/dL
K [5]: 4.9 meq/L
LDH [5]: 78.2 IU/L
Na [5]: 138.8 meq/L
PL [5]: 150 mg/dL
RALB [5]: 3.7 g/dL
TBIL [5]: 0.3 mg/dL
TC [5]: 89.2 mg/dL
TG [5]: 68 mg/dL
TP [5]: 5.5 g/dL
gamma-GTP [5]: 1.6 IU/L
TERMINAL_BW [6]: 228.4 g
TERMINAL_BW [7]: 282.9 g
TERMINAL_BW [8]: 347.7 g
APTT [6]: 16 s
Bas [6]: 0%
Eos [6]: 1%
Fbg [6]: 223.8 mg/dL
Hb [6]: 13.9 g/dL
Ht [6]: 42%
Lym [6]: 81.6%
MCH [6]: 21.3 pg
MCHC [6]: 33%
MCV [6]: 64.4 fL
Mono [6]: 5.2%
Neu [6]: 12.4%
PT [6]: 11.5 s
Plat [6]: 119 x10_4/uL
RBC [6]: 653.2 x10_4/ul
Ret [6]: 6.1%
WBC [6]: 129.6 x10_2/uL
APTT [7]: 17.1 s
Bas [7]: 0%
Eos [7]: 0.6%
Fbg [7]: 225.6 mg/dL
Hb [7]: 13.9 g/dL
Ht [7]: 41.8%
Lym [7]: 82.6%
MCH [7]: 20.4 pg
MCHC [7]: 33.3%
MCV [7]: 61.2 fL
Mono [7]: 4.8%
Neu [7]: 12%
PT [7]: 11.4 s
Plat [7]: 118.1 x10_4/uL
RBC [7]: 683 x10_4/ul
Ret [7]: 4.8%
WBC [7]: 144.2 x10_2/uL
APTT [8]: 18.3 s
Bas [8]: 0%
Eos [8]: 1.2%
Fbg [8]: 217.2 mg/dL
Hb [8]: 14.8 g/dL
Ht [8]: 44%
Lym [8]: 80%
MCH [8]: 19.9 pg
MCHC [8]: 33.5%
MCV [8]: 59.3 fL
Mono [8]: 8%
Neu [8]: 11%
PT [8]: 11.8 s
Plat [8]: 108.5 x10_4/uL
RBC [8]: 743.6 x10_4/ul
Ret [8]: 3%
WBC [8]: 134.3 x10_2/uL
KIDNEY_L [6]: 1 g
KIDNEY_R [6]: 1 g
KIDNEY_TOTAL [6]: 2 g
KIDNEY_L [7]: 1.1 g
KIDNEY_R [7]: 1.1 g
KIDNEY_TOTAL [7]: 2.3 g
KIDNEY_L [8]: 1.3 g
KIDNEY_R [8]: 1.3 g
KIDNEY_TOTAL [8]: 2.6 g
LIVER [6]: 11.6 g
LIVER [7]: 14.2 g
LIVER [8]: 16.4 g
A/G [6]: 2.1
ALP [6]: 1042 IU/L
ALT [6]: 34.2 IU/L
AST [6]: 53.8 IU/L
BUN [6]: 16 mg/dL
CRE [6]: 0.5 mg/dL
Ca [6]: 10.9 mg/dL
Cl [6]: 104.8 meq/L
DBIL [6]: 0.022 mg/dL
GLC [6]: 192 mg/dL
IP [6]: 7.4 mg/dL
K [6]: 5 meq/L
LDH [6]: 85.4 IU/L
Na [6]: 138.4 meq/L
PL [6]: 178.6 mg/dL
RALB [6]: 4 g/dL
TBIL [6]: 0.3 mg/dL
TC [6]: 97.6 mg/dL
TG [6]: 96 mg/dL
TP [6]: 6 g/dL
gamma-GTP [6]: 2 IU/L
A/G [7]: 1.9
ALP [7]: 761.8 IU/L
ALT [7]: 40 IU/L
AST [7]: 59 IU/L
BUN [7]: 18.2 mg/dL
CRE [7]: 0.5 mg/dL
Ca [7]: 10.9 mg/dL
Cl [7]: 106 meq/L
DBIL [7]: 0.042 mg/dL
GLC [7]: 194.6 mg/dL
IP [7]: 6.6 mg/dL
K [7]: 5.1 meq/L
LDH [7]: 87 IU/L
Na [7]: 138.2 meq/L
PL [7]: 171.2 mg/dL
RALB [7]: 4 g/dL
TBIL [7]: 0.3 mg/dL
TC [7]: 84.4 mg/dL
TG [7]: 116.8 mg/dL
TP [7]: 6.1 g/dL
gamma-GTP [7]: 1.2 IU/L
A/G [8]: 1.7
ALP [8]: 681.4 IU/L
ALT [8]: 33.2 IU/L
AST [8]: 52.4 IU/L
BUN [8]: 19.6 mg/dL
CRE [8]: 0.6 mg/dL
Ca [8]: 10.8 mg/dL
Cl [8]: 107.4 meq/L
DBIL [8]: 0.012 mg/dL
GLC [8]: 187.6 mg/dL
IP [8]: 6.7 mg/dL
K [8]: 4.3 meq/L
LDH [8]: 46.4 IU/L
Na [8]: 139.4 meq/L
PL [8]: 145.6 mg/dL
RALB [8]: 4.2 g/dL
TBIL [8]: 0.4 mg/dL
TC [8]: 70.8 mg/dL
TG [8]: 123.8 mg/dL
TP [8]: 6.6 g/dL
gamma-GTP [8]: 1 IU/L
